The target in this test is VirB11 ATPase HP0525 (Helicobacter pylori, UniProt Q7BK04). Briefly: in vitro ATPase colorimetric assay of HP0525. The following applies: for inhibition of HP0525 (in words): qualitative statement. Format: biochemical. The procedure:
The HP0525 protein was produced in the E. coli strain BL21 Star (DE3) (Invitrogen) as described previously.[39] The protein concentration was estimated spectroscopically using a NanoDrop (Thermo Scientific) and a calculated extinction coefficient at 280 nm, based on the amino acid composition. The ATPase activity of HP0525 was measured, with and without a specific amount of compound present, using an in vitro ATPase colorimetric assay kit (Innova Biosciences). The assay was performed in 96‐well ELISA microplates (Greiner Bio‐One), using a multipipette/robot.
A volume of 49 μl of a substrate/buffer solution (200 mM tris(hydroxymethyl)aminomethane [TRIS], pH 7.5; 5 mM MgCl2; 250 μM ATP; and 10% DMSO) was added to each assigned well, followed by the addition of 1 μl of compound (at 0.5; 5 or 50 mM to achieve the final concentrations of 5; 50 and 500 μM in the reaction, respectively) in DMSO (or 1 μl DMSO to controls). The solutions were mixed carefully by pipetting. The reaction was started by the addition of 50 μl of 0.106 μM HP0525 to each well (except the negative control, see text below), and the reaction plate was directly transferred to 37°C for 30 min of incubation. The reaction was stopped by the addition of the gold mix according to the standard protocol of the kit. The absorbance at 620 nm was measured after 30 min at RT. For each compound, the percentage of absorbance relative to non‐inhibited HP0525 was calculated, after subtracting the absorbance value of the negative control. In the negative control, the protein was added after the gold mix, as described in the standard protocol of the kit, which when used as a blank corrects for all free Pi not produced by the enzyme during the 30 min incubation at 37°C. A known inhibitor of HP0525 (CHIR02)[26] was used as a control inhibitor. All measurements were made in duplicate.
Each compound was screened on three separate plates, and each plate was read twice, and a mean was calculated for each concentration. The data were normalized by subtracting the negative control (0% active) and relating it to the positive control (100% active). The software GraphPad Prism 5 was used to generate two dose–response curves (Log [inhibitor] vs. normalized response [standard and variable slope]), and the IC50 values were calculated from each.

Structures are written as SMILES.

VirB11 ATPase HP0525, sequence (Q7BK04 entry or part of it): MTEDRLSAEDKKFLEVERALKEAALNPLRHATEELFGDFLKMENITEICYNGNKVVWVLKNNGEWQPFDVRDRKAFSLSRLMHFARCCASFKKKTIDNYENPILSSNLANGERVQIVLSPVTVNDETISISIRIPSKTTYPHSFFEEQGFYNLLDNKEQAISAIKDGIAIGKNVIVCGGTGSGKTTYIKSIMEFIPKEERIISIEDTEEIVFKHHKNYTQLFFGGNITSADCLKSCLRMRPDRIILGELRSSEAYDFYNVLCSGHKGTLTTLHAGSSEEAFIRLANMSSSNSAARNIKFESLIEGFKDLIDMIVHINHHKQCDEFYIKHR

`C=CCOCCOC(=O)Nc1ccc(S(=O)(=O)Nc2nccn3cc(-c4ccc5ccccc5c4)nc23)cc1` [Compound 15]: it took 46 µM to reach half-maximal inhibition (IC50) and the “inhibition of HP0525 (in words)” value was “improved inhibition”.

`NCCOCCOC(=O)Nc1ccc(S(=O)(=O)Nc2nccn3cc(-c4ccc5ccccc5c4)nc23)cc1` [Compound 27]: inhibition was half-maximal at 137 µM (IC50) and the “inhibition of HP0525 (in words)” value is “poor inhibition”.

In the case of `O=C(CCN1C(=O)C=CC1=O)NCCOCCOC(=O)Nc1ccc(S(=O)(=O)Nc2nccn3cc(-c4ccc5ccccc5c4)nc23)cc1` [Compound 17], the IC50 stood at 18 µM and the “inhibition of HP0525 (in words)” value is recorded as “improved inhibition”.

Take `C#CCOCCOC(=O)Nc1ccc(S(=O)(=O)Nc2nccn3cc(-c4ccc5ccccc5c4)nc23)cc1` [Compound 16]: inhibition was half-maximal at 61 µM (IC50) and the “inhibition of HP0525 (in words)” value is listed as “improved inhibition”.

Source of the values: PMC12086749, “Design, synthesis, and evaluation of peptide‐imidazo[1,2‐a]pyrazine bioconjugates as potential bivalent inhibitors of the VirB11 ATPase HP0525” (Journal of Peptide Science, 2021).
